Assays:
S. aureus = assay: Rapid kill (15 seconds) suspension test, ASTM E2783-11; format: cell-based; details: 15 seconds contact, ingredient in FGZ gel, log 10 reduction of 3.0 or higher counts as effective
Description: Table 2: Antibacterial Activity (Rapidity of Kill Test Organism S. aureus)
Rapid kill (15 seconds) test tube method described in ASTM-E2783-1198751-1 (suspension test).
In vitro rapid-kill test was carried out according to ASTM E2783-11; 10^8 CFU mL^−1 microbial cultures were prepared in a TSA media in order to determine the antimicrobial activity of acne formulations. 0.9 mL acne formulation was kept in contact with 0.1 mL microbial cultures for 15 seconds and subsequently neutralized using agent DE. PBS was used as a control.

[1] = Zone of inhibition test of salicylic acid and botanicals in FGZ base; format: cell-based; details: ingredients in FGZ base; test organism not given
Description: Various botanicals, salicylic acid and combinations were mixed in FGZ gel and antibacterial efficacy was evaluated.
Table 1: Antibacterial Activity of Salicylic Acid and Botanicals in FGZ Base (Zone of Inhibition Test)

| Compound | Log reductrion from control growth (S. aureus) | Zone of inhibition (mm) [1] |
| --- | --- | --- |
| [H]/N=C(\N/C(=N/[H])NCCCCCCNC(=N)NC(=N)Nc1ccc(Cl)cc1)Nc1ccc(Cl)cc1 [chlorhexidine gluconate] | 0.2 | – |
| O=C(O)c1ccccc1O [Salicylic acid 2%, Salicylic acid] | 2.1 | 1 mm |
